From ChEMBL document CHEMBL5390229, “Inhibiting HCMV pUL89-C Endonuclease with Metal-Binding Compounds” (J Med Chem, 2023)

Assays:
[1] = test system: Cytomegalovirus; assay: Antiviral activity against Human Cytomegalovirus assessed as inhibition of viral growth at 10 uM relative to control; format: functional; conditions: Human betaherpesvirus 5
[2] = target: T1, Tripartite terminase subunit 3 (Human betaherpesvirus 5, UniProt P16732); assay: Inhibition of Human Cytomegalovirus C-terminal UL89 […] using (5-tcggtgcgggcctcttcgctattacgccagctggcgaaagggggatgtgctgcaaggcga as a substrate preincubated for 15 mins followed by substrate addition and measured after 30 mins by plate reader endonuclease assay
T1 sequence (P16732 whole entry): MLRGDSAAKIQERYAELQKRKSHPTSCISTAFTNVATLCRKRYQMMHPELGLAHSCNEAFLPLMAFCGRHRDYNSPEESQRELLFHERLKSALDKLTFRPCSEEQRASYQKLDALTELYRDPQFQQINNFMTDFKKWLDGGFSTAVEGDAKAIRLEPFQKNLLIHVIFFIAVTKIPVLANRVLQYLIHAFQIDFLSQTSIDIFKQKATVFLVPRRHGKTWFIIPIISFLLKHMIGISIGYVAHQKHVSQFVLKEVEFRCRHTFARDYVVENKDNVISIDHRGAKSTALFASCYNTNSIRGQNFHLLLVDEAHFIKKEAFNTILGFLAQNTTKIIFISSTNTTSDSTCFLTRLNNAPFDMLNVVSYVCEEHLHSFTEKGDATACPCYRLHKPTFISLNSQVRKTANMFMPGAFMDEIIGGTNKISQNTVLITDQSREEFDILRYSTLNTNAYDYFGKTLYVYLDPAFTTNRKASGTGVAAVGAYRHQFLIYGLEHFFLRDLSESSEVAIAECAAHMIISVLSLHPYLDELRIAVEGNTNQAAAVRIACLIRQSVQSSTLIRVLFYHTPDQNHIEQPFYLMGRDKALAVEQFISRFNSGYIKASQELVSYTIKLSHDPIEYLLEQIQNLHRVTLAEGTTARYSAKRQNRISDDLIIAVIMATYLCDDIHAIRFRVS

[3] = test system: Cytomegalovirus; assay: Antiviral activity against Human Cytomegalovirus; conditions: Human betaherpesvirus 5
[4] = target: T2, Tripartite terminase subunit 3 (Human betaherpesvirus 5) (UniProt P16732); assay: Inhibition of Human Cytomegalovirus C-terminal UL89 […] using (5-tcggtgcgggcctcttcgctattacgccagctggcgaaagggggatgtgctgcaaggcga as a substrate preincubated for 15 mins followed by substrate addition at 20 uM and measured after 30 mins by plate reader endonuclease assay relative to control; conditions: time 45.0 min
T2 sequence (whole entry): T1 sequence (P16732 whole entry)

[5] = Cytotoxicity against human HFF cells assessed as reduction in cell viability incubated for 72 hrs by MTT assay; format: toxicity, cell-based
[6] = target: Human immunodeficiency virus type 1 integrase (Human immunodeficiency virus 1, UniProt Q7ZJM1, G140S/Q148K)
Chain of Human immunodeficiency virus type 1 integrase (Human immunodeficiency virus 1, UniProt Q7ZJM1, G140S/Q148K) (Q7ZJM1 entry or part of it G140S/Q148K): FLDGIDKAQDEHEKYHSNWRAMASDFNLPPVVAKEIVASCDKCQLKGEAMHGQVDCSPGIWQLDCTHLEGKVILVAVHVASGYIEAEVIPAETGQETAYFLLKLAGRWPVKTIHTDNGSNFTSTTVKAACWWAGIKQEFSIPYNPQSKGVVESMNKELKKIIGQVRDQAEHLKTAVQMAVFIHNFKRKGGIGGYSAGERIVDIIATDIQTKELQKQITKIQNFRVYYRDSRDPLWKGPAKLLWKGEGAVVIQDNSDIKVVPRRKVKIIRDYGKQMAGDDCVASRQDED

[7] = target: T1, Tripartite terminase subunit 3; assay: Inhibition of human Cytomegalovirus C-terminal UL89
[8] = Permeability of the compound at pH 7.4 by PAMPA method; format: ADME; conditions: for Papp: read-out: permeability
[9] = target: Human immunodeficiency virus type 1 integrase (Human immunodeficiency virus 1, UniProt Q7ZJM1, R263K); assay: Inhibition of HIV-1 integrase DTG-resistant R263K mutant
Chain of Human immunodeficiency virus type 1 integrase (Human immunodeficiency virus 1, UniProt Q7ZJM1, R263K) (Q7ZJM1 entry or part of it R263K): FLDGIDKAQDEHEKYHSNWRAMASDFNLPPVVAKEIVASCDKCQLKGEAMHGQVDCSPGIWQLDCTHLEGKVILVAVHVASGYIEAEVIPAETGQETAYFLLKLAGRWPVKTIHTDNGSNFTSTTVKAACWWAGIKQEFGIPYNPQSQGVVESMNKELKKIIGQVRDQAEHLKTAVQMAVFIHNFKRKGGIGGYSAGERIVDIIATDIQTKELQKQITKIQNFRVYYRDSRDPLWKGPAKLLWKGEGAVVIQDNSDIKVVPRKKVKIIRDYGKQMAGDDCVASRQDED

[10] = test system: HFF; assay: Cytotoxicity against human HFF cells assessed as reduction in cell viability; format: functional
[11] = Selectivity index, ratio of CC50 for human HFF cells to EC50 for Human cytomegalovirus; format: toxicity; conditions: read-out: Ratio CC50/EC50
[12] = target: Hepatitis C virus NS5B RNA-dependent RNA polymerase (Hepatitis C virus, UniProt Q8JXU8); assay: Inhibition of Hepatitis C virus NS5B polymerase; design: species or system Hepacivirus hominis
Chain of Hepatitis C virus NS5B RNA-dependent RNA polymerase (Q8JXU8 whole entry): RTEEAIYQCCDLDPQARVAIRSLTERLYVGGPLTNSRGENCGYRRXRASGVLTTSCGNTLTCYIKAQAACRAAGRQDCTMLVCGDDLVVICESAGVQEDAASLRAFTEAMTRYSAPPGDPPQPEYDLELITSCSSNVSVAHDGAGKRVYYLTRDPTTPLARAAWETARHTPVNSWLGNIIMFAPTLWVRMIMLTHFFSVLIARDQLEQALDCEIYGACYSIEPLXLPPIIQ

[13] = Cytotoxicity against human HFF-1 cells assessed as induction of cell death incubated for 24 hrs by MTT assay; format: toxicity, cell-based
[14] = target: T3, Human immunodeficiency virus type 1 reverse transcriptase (Human immunodeficiency virus 1, UniProt Q72547); assay: Inhibition of HIV-1 RNase H polymerase activity
[15] = target: T3, Human immunodeficiency virus type 1 reverse transcriptase; assay: Inhibition of HIV-1 reverse transcriptase associated RNA-dependent DNA polymerase
[16] = test system: Human immunodeficiency virus 1; assay: Antiviral activity against HIV-1 assessed as viral growth inhibition; format: functional, organism-based
[17] = target: T3, Human immunodeficiency virus type 1 reverse transcriptase; assay: Inhibition of HIV-1 reverse transcriptase
[18] = target: Integrase (Human immunodeficiency virus 1, UniProt Q76353, Q148K); assay: Inhibition of HIV-1 integrase Q148K mutant
Chain of Integrase (Q76353 entry or part of it Q148K): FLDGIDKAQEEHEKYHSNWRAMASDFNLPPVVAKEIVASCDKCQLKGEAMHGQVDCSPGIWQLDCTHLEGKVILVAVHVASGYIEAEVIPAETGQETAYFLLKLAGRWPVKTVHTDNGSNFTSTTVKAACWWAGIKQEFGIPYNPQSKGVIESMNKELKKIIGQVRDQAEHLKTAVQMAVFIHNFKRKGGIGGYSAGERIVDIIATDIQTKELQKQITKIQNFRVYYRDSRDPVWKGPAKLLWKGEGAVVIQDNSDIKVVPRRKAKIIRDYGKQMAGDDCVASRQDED

[19] = test system: Human immunodeficiency virus 1; assay: Antiviral activity against HIV-1 harboring integrase L74M mutant; format: functional, organism-based

SMILES	IC50 [2]	EC50 [3]	inhibition at 10 µM [1]	also measured
O=C(NCc1ccc(F)cc1F)c1cn(Cc2ccc(F)cc2)ccc1=O		6.6 µM		inhibition [4]: 5%
CCc1ccccc1Sc1cc(=O)n(O)c(=O)n1C				CC50 at 72 h [5]: 20 µM
O=C(NCc1ccccc1)c1nc(-c2cccs2)nc(O)c1O				IC50 [6]: 2.6 µM
Cc1ccc(CNC(=O)c2nc(Cl)c3cccnc3c2O)cc1	1.8 µM			
CN(Cc1ccc(F)cc1)C(=O)CC(=O)C(=O)O				IC50 [7]: 50 µM
O=C(O)C(=O)CC(=O)c1ccc(N2CCCCC2)cc1				IC50 [7]: 4.5 µM
O=c1[nH]c2sc3c(c2c(=O)n1O)CCCC3	0.79 µM		-3%	permeability [8]: 1.1 10^-6 cm/s
Cn1c(Nc2ccc(-c3ccc(C(F)(F)F)cc3)cc2)cc(=O)n(O)c1=O	> 20 µM			
O=C(c1cc(Cc2ccccc2)cc(CN2CCCS2(=O)=O)c1)c1ncc2cccnc2c1O				IC50 [9]: 0.01 µM
O=C(O)C(=O)CC(=O)c1cccc(Cc2ccccc2)c1				IC50 [9]: 0.01 µM
COc1cccc(OC)c1-c1cccc(Nc2cc(=O)n(O)c(=O)[nH]2)c1	14 µM	15 µM		
O=C(NCc1ccc(F)cc1F)c1cn(Cc2ccc(F)cc2)cc(O)c1=O		0.9 µM		inhibition [4]: 14%
O=c1cc(Nc2cccc(-c3ccc(Cl)cc3)c2)[nH]c(=O)n1O	> 20 µM	> 20 µM		
CCOC(=O)c1cn(Cc2ccc(F)cc2)cc(O)c1=O			40%	
O=C(O)c1cn(Cc2ccc(F)cc2)cc(O)c1=O		10 µM	39%	
O=C(NCCc1ccc(F)cc1F)c1cn(Cc2ccc(F)cc2)cc(O)c1=O		0.4 µM		CC50 [10]: > 50 µM; selectivity ratio [11]: > 40; inhibition [4]: 10%
O=c1[nH]c2sc3c(c2c(=O)n1O)CCC3	0.48 µM		19%	Papp [8]: 0.4 ×10⁻⁶ cm/s
COc1cn(Cc2ccc(F)cc2)cc(C(=O)NCc2ccc(F)cc2F)c1=O		> 50 µM		inhibition [4]: 6%

SMILES	IC50 [2]	EC50 [3]	inhibition at 10 µM [1]	also measured
O=C1c2ccccc2C(c2ccccc2F)C(=O)N1O (centres undefined)	1.4 µM	6.2 µM	68%	Papp [8]: 3 ×10⁻⁶ cm/s
O=c1[nH]c2sc(-c3ccc(Cl)cc3)cc2c(=O)n1O	0.3 µM	7.6 µM	33%	Papp [8]: 0.5 ×10⁻⁶ cm/s
O=c1[nH]c2ccsc2c(=O)n1O	0.1 µM		-11%	Papp [8]: 0.1 ×10⁻⁶ cm/s
CCOC(=O)c1cc(=O)c(O)c(C(=O)O)o1				IC50 [12]: 2.25 µM
O=c1[nH]c2cc(-c3ccccc3)sc2c(=O)n1O	0.6 µM	13 µM	59%	permeability [8]: 1.4 10^-6 cm/s; CC50 at 24 h [13]: > 50 µM
O=C(O)c1nc(-c2cccs2)nc(O)c1O				IC50 [12]: 2.6 µM
CC(C)c1cn(COCc2ccccc2)c(=O)n(O)c1=O				CC50 at 72 h [5]: > 20 µM; IC50 [14]: 2.5 µM; IC50 [15]: 5.4 µM; EC50 [16]: 0.008 µM
O=c1[nH]c2c3c(sc2c(=O)n1O)CCCC3	0.94 µM		-4.5%	Papp [8]: 1 ×10⁻⁶ cm/s
O=c1[nH]c2c3c(sc2c(=O)n1O)CCC3	0.22 µM	0.22 µM	-32%	Papp [8]: 0.3 ×10⁻⁶ cm/s
O=c1[nH]c2sc3c(c2c(=O)n1O)CCN(Cc1ccccc1)C3	1.1 µM	15 µM	59%	Papp [8]: 0.2 ×10⁻⁶ cm/s; CC50 at 24 h [13]: > 50 µM
O=c1[nH]c2sc(-c3ccccc3)cc2c(=O)n1O	1.6 µM		2.7%	Papp [8]: 0.5 ×10⁻⁶ cm/s
O=c1cc(Nc2ccc(-c3cccc(O)c3)cc2)[nH]c(=O)n1O	2.9 µM	> 20 µM		
O=c1c2cc(Cc3ccccc3)ccc2oc2ccc(O)c(O)c12				IC50 [9]: 0.6 µM
CC(C)c1cn(COCc2ccccc2)c(=O)[nH]c1=O				CC50 [10]: > 20 µM; IC50 [17]: 0.04 µM; IC50 [18]: > 333 µM; EC50 [19]: 0.013 µM
O=c1[nH]c2sccc2c(=O)n1O	0.4 µM		-0.95%	Papp [8]: 0.1 ×10⁻⁶ cm/s
O=C(NCc1ccc(F)cc1)c1ncc2cccnc2c1O				IC50 [9]: 0.033 µM
O=c1[nH]c2sc3c(c2c(=O)n1O)CCNC3	0.68 µM		26%	Papp [8]: 0.1 ×10⁻⁶ cm/s
O=c1[nH]c2cc(-c3ccccc3)ccc2c(=O)n1O	6.4 µM	13 µM	91%	Papp [8]: 2 ×10⁻⁶ cm/s

Continued, in another order:

IC50 [2]	EC50 [3]	SMILES	inhibition at 10 µM [1]	also measured
> 25 µM		O=C(O)c1cn(C2CC2)cc(O)c1=O	2%	
14 µM		O=C(O)c1c[nH]cc(O)c1=O	13%	
1.2 µM	> 20 µM	COc1cccc(-c2ccc(Nc3cc(=O)n(O)c(=O)[nH]3)cc2)c1		
> 20 µM		COc1ccc(-c2ccc(Nc3cc(=O)n(O)c(=O)n3C)cc2)cc1		
9.3 µM	> 20 µM	O=c1cc(Nc2ccc(-c3ccc(Cl)cc3)cc2)[nH]c(=O)n1O		
6 µM	4 µM	O=C(O)c1cn(Cc2ccc(F)c(Cl)c2)cc(O)c1=O	53%	CC50 [10]: > 200 µM; selectivity ratio [11]: > 116
> 25 µM		O=C(O)c1cn(Cc2ccccc2)cc(O)c1=O	38%	
> 25 µM		O=C(O)c1cn(-c2ccccc2)cc(O)c1=O	8%	
> 20 µM	> 20 µM	Cn1c(Nc2ccc(-c3ccccc3)cc2)cc(=O)n(O)c1=O		
> 25 µM		CCn1cc(O)c(=O)c(C(=O)O)c1	14%	
> 50 µM		NC(=O)c1cn(Cc2ccc(F)cc2)cc(O)c1=O	50%	
0.74 µM	6.2 µM	Cn1c(Nc2ccc(-c3cccc(C#N)c3)cc2)cc(=O)n(O)c1=O		
2.2 µM	1.2 µM	Cc1ccc(-c2ccc(Nc3cc(=O)n(O)c(=O)n3C)cc2)cc1		
2.8 µM		Cc1ccc(CNC(=O)c2nc(-c3ccccc3)c3cccnc3c2O)cc1		
1.1 µM	> 20 µM	O=c1cc(Nc2ccc(-c3ccc(O)cc3)cc2)[nH]c(=O)n1O		
14 µM	> 20 µM	COc1ccc(-c2cccc(Nc3cc(=O)n(O)c(=O)[nH]3)c2)cc1		
